Where “and” joins values, the source holds several entries; their conditions need not be identical. Identical values can stand only once. Results filed as inconclusive are left out. Calls of active or inactive are those of the source.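 The calls were made as follows: active = valid dose-response fit whose half-maximal growth-inhibiting concentration is at or below a set limit above the top tested dose; inconclusive = flat fit with effect between 30 and 70%, or poor fit; inactive = half-maximal concentration above a set limit.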
Key:
[1] = tested on: Clostridioides difficile clinical isolate growth, OD600, 24 h; assay: antibacterial activity against Clostridioides difficile – 10-point retest, dose response (AID 1259246)
[2] = as above; conditions: Clostridioides difficile clinical isolate growth, OD600, 24 h

| Structure (SMILES) | IC50 [1] | activity change, negative = inhibition ([2]; at 120 µM (top of the series)) | other results |
| --- | --- | --- | --- |
| CO[C@@H]1CN(C)C(=O)c2ccc(NC(=O)c3ccc(-c4ccccc4)cc3)cc2OC[C@@H](C)NC[C@@H]1C | 62.8 µM | – | – |
| C[C@@H]1CN([C@@H](C)CO)C(=O)c2cccc(NC(=O)Nc3ccccc3)c2O[C@@H]1CN(C)Cc1ccc(-c2ccccc2)cc1 | 3.3 µM and 1.93 µM and 5.49 µM | – | – |
| CO[C@H]1CN(C)C(=O)c2cc(NC(=O)Nc3ccc(Cl)c(Cl)c3)ccc2OC[C@@H](C)NC[C@H]1C | 14.9 µM and 13.1 µM | – | – |
| CO[C@H](CN(C)C(=O)C1CCOCC1)[C@@H](C)CN(C(=O)Nc1ccc(C(F)(F)F)cc1)[C@H](C)CO | 14.5 µM | – | – |
| Cc1ccc(S(=O)(=O)Nc2ccc3c(c2)C(=O)N([C@@H](C)CO)C[C@H](C)[C@@H](CN(C)Cc2ccc4c(c2)OCO4)OCCCC[C@@H](C)O3)cc1 | 17.6 µM | – | – |
| CO[C@H]1CN(C)C(=O)c2cc(NC(=O)Nc3cc(Cl)cc(Cl)c3)ccc2OC[C@H](C)NC[C@@H]1C | 34 µM and 55 µM | – | – |
| C[C@H]1CN([C@@H](C)CO)S(=O)(=O)c2ccc(/C=C/c3ccccc3)cc2O[C@@H]1CN(C)Cc1ccc(C(=O)O)cc1 | 62.8 µM | – | – |
| C[C@@H]1CN([C@H](C)CO)S(=O)(=O)c2ccc(C#CCC3CCCC3)cc2O[C@H]1CN(C)Cc1ccc(C(=O)O)cc1 | 76.2 µM | – | – |
| COc1ccc(CN(C)C[C@@H]2OCCCC[C@H](C)Oc3ccc(NC(=O)Nc4cccc5ccccc45)cc3C(=O)N([C@H](C)CO)C[C@H]2C)cc1 | 87.9 µM | – | – |
| CO[C@H](CN(C)C(=O)C1CCOCC1)[C@H](C)CN(C(=O)Nc1ccc(C(F)(F)F)cc1)[C@@H](C)CO | 21.4 µM | – | – |
| CNC[C@H]1Oc2cc(C#CC3CCCCC3)ccc2S(=O)(=O)N([C@H](C)CO)C[C@@H]1C | 63.8 µM | – | – |
| Cc1cc(C(=O)Nc2cccc3c2O[C@@H](CN(C)Cc2ccc(-c4ccccc4)cc2)[C@H](C)CN([C@@H](C)CO)C3=O)n(C)n1 | 17.5 µM | – | – |
| COc1ccc(NC(=O)Nc2cccc3c2O[C@H](CN(C)Cc2ccc(C(F)(F)F)cc2)[C@H](C)CN([C@@H](C)CO)C3=O)cc1 | 25.6 µM | – | – |
| CNC[C@@H]1Oc2cc(C#CCC3CCCC3)ccc2S(=O)(=O)N([C@H](C)CO)C[C@H]1C | 68.6 µM | – | – |
| COc1ccc(NC(=O)Nc2cccc3c2O[C@H](CN(C)Cc2ccc(Oc4ccccc4)cc2)[C@H](C)CN([C@@H](C)CO)C3=O)cc1 | 2.47 µM and 0.531 µM and 0.465 µM | – | – |
| C[C@@H]1CN([C@H](C)CO)C(=O)Cc2cc(NC(=O)CCCN(C)C)ccc2O[C@H]1CN(C)Cc1ccc(-c2ccccc2)cc1 | 74.7 µM and 48 µM | – | – |
| CO[C@@H](CN(C)C(=O)C1CC1)[C@H](C)CN(C(=O)Nc1ccc(C(F)(F)F)cc1)[C@@H](C)CO | 6.58 µM | – | – |
| N#C[C@H]1[C@@H](c2ccc(C#Cc3ccccc3F)cc2)[C@@H](CO)N1C(=O)C1CCCCC1 | 157 µM | – | – |
| C[C@H]1CN([C@@H](C)CO)C(=O)c2cccc(NC(=O)Nc3ccc(C(F)(F)F)cc3)c2O[C@H]1CN(C)Cc1ccc(-c2ccccc2)cc1 | 116 µM | – | – |
| COc1ccc(C#Cc2cnc3c(c2)C(=O)N([C@@H](C)CO)C[C@@H](C)[C@H](CN(C)CC2CCCC2)O3)cc1 | 188 µM | – | – |
| O=C(C[C@H]1CC[C@@H]2[C@H](COC[C@@H](O)CN2S(=O)(=O)c2ccccc2)O1)NCC1CCCCC1 | 52.4 µM | – | – |
| O=C(NCC[C@@H]1CC[C@H](NC(=O)Nc2cc(F)ccc2F)[C@H](CO)O1)Nc1ccc(Cl)cc1 | > 240 µM (inactive) | – | – |

| Structure (SMILES) | IC50 [1] | activity change, negative = inhibition ([2]; at 120 µM (top of the series)) | other results |
| --- | --- | --- | --- |
| C[C@@H]1CN([C@@H](C)CO)C(=O)Cc2cc(NC(=O)CCCN(C)C)ccc2O[C@H]1CN(C)Cc1ccc(Oc2ccccc2)cc1 | 71.1 µM | – | – |
| CNC[C@@H]1Oc2ccc(NC(=O)Nc3ccccc3)cc2CC(=O)N([C@@H](C)CO)C[C@H]1C | > 270 µM (inactive) | – | – |
| C[C@@H]1CN([C@@H](C)CO)C(=O)c2cccc(NC(=O)Nc3ccc(C(F)(F)F)cc3)c2O[C@@H]1CN(C)C(=O)Nc1ccc(F)cc1 | 13.9 µM and > 240 µM (inactive) | – | – |
| C[C@H](O)C#Cc1ccc2c(c1)O[C@H](CN(C)C(=O)CN(C)C)[C@H](C)CN([C@H](C)CO)S2(=O)=O | > 240 µM (inactive) | – | – |
| C[C@H]1CN([C@@H](C)CO)S(=O)(=O)c2ccc(C#Cc3ccc(F)cc3)cc2O[C@@H]1CN(C)C | 69.9 µM | – | – |
| O=C(NCC[C@H]1CC[C@H](NS(=O)(=O)c2ccc(F)cc2)[C@@H](CO)O1)Nc1ccc(Cl)cc1 | 26.6 µM | – | – |
| CO[C@@H]1CN(C)C(=O)c2cc(NC(=O)Nc3ccc(Cl)c(Cl)c3)ccc2OC[C@@H](C)NC[C@@H]1C | 13.7 µM and 26.6 µM | – | – |
| CO[C@H](CN(C)C(=O)C1CCOCC1)[C@@H](C)CN(C(=O)Nc1ccc(C(F)(F)F)cc1)[C@@H](C)CO | 2.03 µM | – | – |
| C[C@@H]1CN([C@@H](C)CO)C(=O)c2cccc(NC(=O)Nc3ccc(F)cc3)c2O[C@@H]1CN(C)Cc1ccc(C(F)(F)F)cc1 | 13 µM and 3.27 µM and 6.22 µM | – | – |
| C[C@@H]1CN([C@@H](C)CO)C(=O)c2cccc(NC(=O)Nc3ccc(C(F)(F)F)cc3)c2O[C@@H]1CN(C)Cc1ccc(Oc2ccccc2)cc1 | 0.443 µM and 0.73 µM | – | – |
| C[C@@H]1CCCCO[C@H](CN(C)CC2CCCCC2)[C@H](C)CN([C@H](C)CO)C(=O)c2cc(NC(=O)Nc3ccc(C(F)(F)F)cc3)ccc2O1 | 5.06 µM and 44.8 µM and 31.8 µM | – | – |
| C[C@@H]1CN([C@@H](C)CO)C(=O)c2cccc(NC(=O)Nc3ccc(F)cc3)c2O[C@@H]1CN(C)Cc1ccc(-c2ccccc2)cc1 | 4.56 µM and 1.71 µM and 1.93 µM | – | – |
| CO[C@H]1CN(C)C(=O)c2cc(NC(=O)Nc3cc(Cl)cc(Cl)c3)ccc2OC[C@H](C)NC[C@H]1C | 41.2 µM and 8.16 µM | – | – |
| CO[C@@H](CN(C)C(=O)C1CCOCC1)[C@H](C)CN(C(=O)Nc1ccc(C(F)(F)F)cc1)[C@@H](C)CO | 23.4 µM | – | – |
| CCS(=O)(=O)N1[C@H](CO)[C@H](c2ccc(C#CCC3CCCC3)cc2)[C@@H]1C#N | 80.2 µM | – | – |
| CO[C@@H](CN(C)C(=O)C1CCOCC1)[C@@H](C)CN(C(=O)Nc1ccc(C(F)(F)F)cc1)[C@@H](C)CO | 38.8 µM | – | – |
| C[C@H]1CN([C@@H](C)CO)C(=O)Cc2cc(NC(=O)Nc3ccc(C(F)(F)F)cc3)ccc2O[C@H]1CN(C)Cc1ccncc1 | 7.49 µM | – | – |
| C[C@H]1CN([C@@H](C)CO)S(=O)(=O)c2ccc(C#CCC3CCCC3)cc2O[C@H]1CN(C)C | 70.9 µM | – | – |
| C/C=C/c1ccc2c(c1)O[C@@H](CN(C)Cc1ccc(C(=O)O)cc1)[C@H](C)CN([C@@H](C)CO)S2(=O)=O | – | -3.63% (inactive) | – |
| Cc1ccc(-c2ccc3c(c2)O[C@H](CN(C)Cc2cccnc2)[C@@H](C)CN([C@@H](C)CO)S3(=O)=O)cc1 | – | 25.7% (inactive) | – |
| N#C[C@H]1[C@@H](c2ccc(C#CC3CCCCC3)cc2)[C@@H](CO)N1C(=O)Cc1ccccn1 | – | 40.2% (inactive) | – |
| C[C@H](CO)N1C[C@H](C)[C@H](CN(C)S(=O)(=O)c2ccc(F)cc2)OCCCC[C@H](C)Oc2ccc(NC(=O)Nc3cccc4ccccc34)cc2C1=O | – | 34.7% (inactive) | – |

| Structure (SMILES) | IC50 [1] | activity change, negative = inhibition ([2]; at 120 µM (top of the series)) | other results |
| --- | --- | --- | --- |
| Cc1ccc(S(=O)(=O)N[C@H]2CC[C@H](CCNC(=O)Cc3ccccn3)O[C@H]2CO)cc1 | – | -0.997% (inactive) | – |
| CC(C)CC#Cc1ccc2c(c1)O[C@H](CN(C)Cc1ccc3c(c1)OCO3)[C@H](C)CN([C@H](C)CO)S2(=O)=O | – | 15.4% (inactive) | – |
| CC(C)CC#Cc1ccc2c(c1)O[C@H](CN(C)Cc1cccnc1)[C@@H](C)CN([C@@H](C)CO)S2(=O)=O | – | 20.5% (inactive) | – |
| COc1ccc(NC(=O)Nc2ccc3c(c2)[C@H]2C[C@H](CC(=O)NCc4ccccc4F)O[C@@H](CO)[C@H]2O3)cc1 | – | 3.92% (inactive) | – |
| C[C@@H]1CN([C@H](C)CO)C(=O)c2cccc(NC(=O)Nc3ccc(C(F)(F)F)cc3)c2O[C@H]1CN(C)S(=O)(=O)c1ccc(Cl)cc1 | – | 48.2% (inactive) | – |
| C[C@@H]1CN([C@@H](C)CO)S(=O)(=O)c2ccc(C#CC3CCCC3)cc2O[C@H]1CN(C)Cc1cccnc1 | – | 23.5% (inactive) | – |
| O=S(=O)(NCC[C@H]1CC[C@H](NS(=O)(=O)c2ccccc2Cl)[C@H](CO)O1)c1ccc(Cl)cc1 | – | -7.26% (inactive) | – |
| CO[C@@H]1CN(C)C(=O)c2ccc(NC(=O)c3nc4ccccc4s3)cc2OC[C@@H](C)N(Cc2ccncc2)C[C@H]1C | – | 28.6% (inactive) | – |
| CNC[C@H]1Oc2ccc(N)cc2CC(=O)N([C@H](C)CO)C[C@H]1C | – | -8.02% (inactive) | – |
| CNC[C@H]1Oc2c(N)cccc2C(=O)N([C@@H](C)CO)C[C@H]1C | – | -0.016% (inactive) | – |
| CC(C)CC#Cc1ccc2c(c1)O[C@H](CN(C)Cc1ccccc1F)[C@H](C)CN([C@@H](C)CO)S2(=O)=O | – | 26.2% (inactive) | – |
| Cc1ccc(S(=O)(=O)N2C[C@@H](O)COC[C@H]3O[C@H](CC(=O)NCc4ccc(Cl)c(Cl)c4)CC[C@@H]32)cc1 | – | 22.9% (inactive) and 25.2% (inactive) and 97.3% (inactive) | – |
| C[C@@H]1CN([C@H](C)CO)C(=O)c2cccc(NC(=O)Nc3ccc4c(c3)OCO4)c2O[C@H]1CN(C)Cc1ccc(-c2ccccc2)cc1 | – | 6.58% (inactive) | – |
| C[C@H]1CN([C@@H](C)CO)C(=O)Cc2cc(NC(=O)C3CC3)ccc2O[C@@H]1CN(C)Cc1ccc(-c2ccccc2)cc1 | – | – | activity change, negative = inhibition ([2]; at 135 µM (top of the series)): 17.1% (inactive) |
| C[C@@H]1CN([C@@H](C)CO)S(=O)(=O)c2ccc(/C=C/c3ccccc3)cc2O[C@H]1CN(C)Cc1ccccc1 | – | – | activity change, negative = inhibition ([2]; at 60 µM (top of the series)): 2.6% (inactive) |
| COc1ccc(NC(=O)Nc2cccc3c2O[C@H](CN(C)Cc2ccc(Oc4ccccc4)cc2)[C@@H](C)CN([C@H](C)CO)C3=O)cc1 | – | 17.1% (inactive) | – |
| Cc1ccc(S(=O)(=O)N[C@@H]2CC[C@H](CCNS(=O)(=O)Cc3ccccc3)O[C@H]2CO)cc1 | – | -2.21% (inactive) | – |
| C[C@@H]1CN([C@@H](C)CO)S(=O)(=O)c2ccc(Br)cc2O[C@H]1CN(C)Cc1cccnc1 | – | 2.31% (inactive) | – |
| O=C(N[C@H]1CC[C@H](CCNS(=O)(=O)Cc2ccccc2)O[C@H]1CO)c1ccccc1F | – | – | activity change, negative = inhibition ([2]; at 135 µM (top of the series)): -3.44% (inactive) |
| O=C(C[C@@H]1C[C@H]2c3cc(NC(=O)C4CCC4)ccc3O[C@H]2[C@H](CO)O1)NCc1ccc(Cl)cc1 | – | – | activity change, negative = inhibition ([2]; at 60 µM (top of the series)): -4.77% (inactive) |
| CNC[C@H]1Oc2cc(Br)ccc2S(=O)(=O)N([C@H](C)CO)C[C@@H]1C | – | 6.99% (inactive) | – |
| O=C(C[C@H]1C[C@H]2c3cc(NS(=O)(=O)c4ccc(F)cc4)ccc3O[C@H]2[C@@H](CO)O1)NCc1ccc(-c2ccccc2)cc1 | – | 10.6% (inactive) | – |

— PubChem BioAssay AID1259246 (Broad Institute, 2017)
